We go through 21 molecules from patent US11339171B2, “MDM2 inhibitors” (Gan & Lee Pharmaceuticals, priority 2017, dated 2022).

Assay [1] relates to human osteosarcoma cell line SJSA-1. Kind of assay: Inhibition of proliferation of human osteosarcoma cell line SJSA-1 (DAPI staining, In Cell Analyzer). To be noted: Homo sapiens, SJSA-1, 72 h, read-out: IC50 (nM), inhibitory activity on proliferation of human osteosarcoma cell line SJSA-1, SJSA-1, incubated 72 h.
In another assay the target is T1, MDM2 (Homo sapiens, UniProt Q00987).
T1 construct: made in house
T1 sequence (Q00987 whole entry): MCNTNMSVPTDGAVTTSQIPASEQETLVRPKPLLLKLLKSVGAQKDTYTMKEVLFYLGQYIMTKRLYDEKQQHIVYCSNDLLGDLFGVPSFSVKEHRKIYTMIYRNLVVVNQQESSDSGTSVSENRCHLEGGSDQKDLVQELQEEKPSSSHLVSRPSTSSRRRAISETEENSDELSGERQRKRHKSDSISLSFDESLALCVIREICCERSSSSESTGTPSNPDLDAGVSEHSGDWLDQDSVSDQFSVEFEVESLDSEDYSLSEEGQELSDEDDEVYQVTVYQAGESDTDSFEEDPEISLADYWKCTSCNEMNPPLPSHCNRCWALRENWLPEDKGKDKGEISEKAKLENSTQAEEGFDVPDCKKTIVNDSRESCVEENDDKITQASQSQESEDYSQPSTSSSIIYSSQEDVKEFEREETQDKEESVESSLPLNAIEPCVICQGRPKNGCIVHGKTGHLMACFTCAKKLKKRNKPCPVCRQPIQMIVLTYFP
Kind of assay: Inhibition test of MDM2-P53 (GST-MDM2, Biotin-P53, Anti-GST-Tb, SA-XL665). The assay is classed as binding. The gist of the method: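 Binding was measured by TR-FRET with GST-MDM2 at 4 nM final in PBS with 0.1% BSA, 5 mM DTT and 1 mM AEBSF. Compounds were tested as twelve-point 5-fold dilutions and incubated with the detection mix for 90 min at 25 °C with shaking before plate-reader reading and curve fitting.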

Regarding `COc1cc(N)c(F)cc1-c1nc2c(n1C(C)C)[C@]1(C(=O)Nc3cc(Cl)ccc31)N(c1cc(Cl)ccc1C)C2=O` [Example R-75, (R)-2′-(4-amino-5-fluoro-2-methoxyphenyl)-6-chloro-5′-(5-chloro-2-methylphenyl)-3′-isopropyl-3′H-spiro[dihydroindole-3,4′-pyrrolo[3,4-d]imidazole]-2,6′(5′H)-dione], the IC50 in assay [1] was 3040 nM; against MDM2, 122 nM.

On to `COc1cc(N(C)C)c(F)cc1-c1nc2c(n1C(C)C)[C@]1(C(=O)Nc3cc(Cl)ccc31)N(c1cc(Cl)ccc1C)C2=O` [Example R-78], for which the IC50 came out at 1360 nM in assay [1] and 222 nM at MDM2.

As to `COc1cc(N(C)C)ccc1-c1nc2c(n1C(C)C)[C@]1(C(=O)Nc3cc(Cl)ccc31)N(c1cc(Cl)ccc1F)C2=O` [Example R-81, (R)-6-chloro-5′-(5-chloro-2-fluorophenyl)-2′-(4-(dimethylamino)-2-methoxyphenyl)-3′-isopropyl-3′H-spiro[dihydroindole-3,4′-pyrrolo[3,4-d]imidazole]-2,6′(5′H)-dione], the values for the IC50 (in assay [1]; against MDM2) were 1600 nM and 53.3 nM, respectively.

Turning to `COc1cc(OC)c(-c2nc3c(n2C(C)C)[C@]2(C(=O)Nc4cc(Cl)ccc42)N(c2cc(Cl)ccc2C)C3=O)cc1C` [Example R-83, (R)-6-chloro-5′-(5-chloro-2-methylphenyl)-2′-(2,4-dimethoxy-5-methylphenyl)-3′-isopropyl-3′H-spiro[dihydroindole-3,4′-pyrrolo[3,4-d]imidazole]-2,6′(5′H)-dione], the results for the IC50 (in assay [1]; against MDM2) were 589 nM and 87.6 nM, respectively.

`COc1cc(C(F)(F)F)ccc1-c1nc2c(n1C(C)C)[C@]1(C(=O)Nc3cc(Cl)ccc31)N(c1cc(Cl)ccc1C)C2=O` [Example R-85, (R)-6-chloro-5′-(5-chloro-2-methylphenyl)-3′-isopropyl-2′-(2-methoxy-4-(trifluoromethyl)phenyl)-3′H-spiro[dihydroindole-3,4′-pyrrolo[3,4-d]imidazole]-2,6′(5′H)-dione]: the IC50 amounted to 2190 nM in assay [1] and 494 nM against MDM2.

Turning to `COc1cc(OC(F)(F)F)ccc1-c1nc2c(n1C(C)C)[C@]1(C(=O)Nc3cc(Cl)ccc31)N(c1cc(Cl)ccc1C)C2=O` [Example R-87, (R)-6-chloro-5′-(5-chloro-2-methylphenyl)-3′-isopropyl-2′-(2-methoxy-4-(trifluoromethoxy)phenyl)-3′H-spiro[dihydroindole-3,4′-pyrrolo[3,4-d]imidazole]-2,6′(5′H)-dione], the IC50 in assay [1] came to 7350 nM; against MDM2, 473 nM.

As for `COc1cc(N(C)C)c(C)cc1-c1nc2c(n1C(C)C)[C@]1(C(=O)Nc3cc(Cl)ccc31)N(c1cc(Cl)ccc1C)C2=O` [Example R-91, (R)-6-chloro-5′-(5-chloro-2-methylphenyl)-2′-(4-(dimethylamino)-2-methoxy-5-methylphenyl)-3′-isopropyl-3′H-spiro[dihydroindole-3,4′-pyrrolo[3,4-d]imidazole]-2,6′(5′H)-dione], the IC50 in assay [1] amounted to 993 nM; at MDM2, 461 nM.

As to `COc1cc(OC)c(-c2nc3c(n2C(C)C)[C@]2(C(=O)Nc4cc(Cl)ccc42)N(c2cc(Cl)ccc2C)C3=O)cc1F` [Example R-92, (R)-6-chloro-5′-(5-chloro-2-methylphenyl)-2′-(5-fluoro-2,4-dimethoxyphenyl)-3′-isopropyl-3′H-spiro[dihydroindole-3,4′-pyrrolo[3,4-d]imidazole]-2,6′(5′H)-dione], the IC50 turned out to be 4880 nM in assay [1] and 378 nM against MDM2.

Take `CCOc1ncc(-c2nc3c(n2C(C)C)[C@]2(C(=O)Nc4cc(Cl)ccc42)N(c2cc(Cl)ccc2F)C3=O)c(OC)n1` [Example R-97, (R)-6-chloro-5′-(5-chloro-2-fluorophenyl)-2′-(2-ethoxy-4-methoxypyrimidin-5-yl)-3′-isopropyl-3′H-spiro[dihydroindole-3,4′-pyrrolo[3,4-d]imidazole]-2,6′(5′H)-dione]: the results for the IC50 (in assay [1]; against MDM2) were 396 nM and 5.73 nM, respectively.

Consider `CCN(C)c1ccc(-c2nc3c(n2C(C)C)[C@]2(C(=O)Nc4cc(Cl)ccc42)N(c2cc(Cl)ccc2C)C3=O)c(OC)c1` [Example R-99, (R)-6-chloro-5′-(5-chloro-2-methylphenyl)-2′-(4-(ethyl(methyl)amino)-2-methoxyphenyl)-3′-isopropyl-3′H-spiro[dihydroindole-3,4′-pyrrolo[3,4-d]imidazole]-2,6′(5′H)-dione], for which the figures for the IC50 (in assay [1]; on MDM2) were 1470 nM and 115 nM, respectively.

With `COc1cc(C2CC2)ncc1-c1nc2c(n1C(C)C)[C@]1(C(=O)Nc3cc(Cl)ccc31)N(c1cc(Cl)ccc1C)C2=O` [Example R-103, (R)-6-chloro-5′-(5-chloro-2-methylphenyl)-2′-(6-cyclopropyl-4-methoxypyridin-3-yl)-3′-isopropyl-3′H-spiro[dihydroindole-3,4′-pyrrolo[3,4-d]imidazole]-2,6′(5′H)-dione], the IC50 was 2430 nM in assay [1] and 181 nM on MDM2.

With `COc1cc(N(C)C)ccc1-c1nc2c(n1C(C)C)[C@]1(C(=O)Nc3cc(Cl)ccc31)N(c1cccc(Cl)c1)C2=O` [Example R-104, (R)-6-chloro-5′-(3-chlorophenyl)-2′-(4-(dimethylamino)-2-methoxyphenyl)-3′-isopropyl-3′H-spiro[dihydroindole-3,4′-pyrrolo[3,4-d]imidazole]-2,6′(5′H)-dione], the IC50 in assay [1] came to 6890 nM; on MDM2, 146 nM.

With `CCc1ccc(-c2nc3c(n2C(C)C)[C@]2(C(=O)Nc4cc(Cl)ccc42)N(c2cccc(Cl)c2)C3=O)c(OC)c1` [Example R-107, (R)-6-chloro-5′-(3-chlorophenyl)-2′-(4-ethyl-2-methoxyphenyl)-3′-isopropyl-3′H-spiro[dihydroindole-3,4′-pyrrolo[3,4-d]imidazole]-2,6′(5′H)-dione], the IC50 turned out to be 3240 nM in assay [1] and 536 nM at MDM2.

Turning to `COc1cc(C)ccc1-c1nc2c(n1C(C)C)[C@]1(C(=O)Nc3cc(Cl)ccc31)N(c1cccc(Cl)c1)C2=O` [Example R-109, (R)-6-chloro-5′-(3-chlorophenyl)-3′-isopropyl-2′-(2-methoxy-4-methylphenyl)-3′H-spiro[dihydroindole-3,4′-pyrrolo[3,4-d]imidazole]-2,6′(5′H)-dione], the results for the IC50 (in assay [1]; at MDM2) were 8200 nM and 381 nM, respectively.

On to `COc1cc(N(C)C)ncc1-c1nc2c(n1C(C)C)[C@]1(C(=O)Nc3cc(Cl)ccc31)N(c1cc(Cl)ccc1C)C2=O` [Example R-111, (R)-6-chloro-5′-(5-chloro-2-methylphenyl)-2′-(6-(dimethylamino)-4-methoxypyridin-3-yl)-3′-isopropyl-3′H-spiro[dihydroindole-3,4′-pyrrolo[3,4-d]imidazole]-2,6′ (5′H)-dione], for which the results for the IC50 (in assay [1]; at MDM2) were 561 nM and 110 nM, respectively.

Consider `COc1cc(N(C)C)ncc1-c1nc2c(n1C(C)C)[C@]1(C(=O)Nc3cc(Cl)ccc31)N(c1cccc(Cl)c1)C2=O` [Example R-113, (R)-6-chloro-5′-(3-chlorophenyl)-2′-(6-(dimethylamino)-4-methoxypyridin-3-yl)-3′-isopropyl-3′H-spiro[dihydroindole-3,4′-pyrrolo[3,4-d]imidazole]-2,6′(5′H)-dione], for which the IC50 in assay [1] was 2170 nM; against MDM2 it was 50.5 nM.

As for `COc1cc(OC)c(-c2nc3c(n2C(C)C)[C@]2(C(=O)Nc4cc(Cl)ccc42)N(c2cccc(Cl)c2)C3=O)cn1` [Example R-115, (R)-6-chloro-5′-(3-chlorophenyl)-2′-(4,6-dimethoxypyridin-3-yl)-3′-isopropyl-3′H-spiro[dihydroindole-3,4′-pyrrolo[3,4-d]imidazole]-2,6′(5′H)-dione], the IC50 turned out to be 26.9 nM in assay [1] and 269 nM against MDM2.

Take `COc1nc(OC(C)C)ncc1-c1nc2c(n1C(C)C)[C@]1(C(=O)Nc3cc(Cl)ccc31)N(c1cc(Cl)ccc1C)C2=O` [Example R-126, (R)-6-chloro-5′-(5-chloro-2-methylphenyl)-2′-(2-isopropoxy-4-methoxypyrimidin-5-yl)-3′-isopropyl-3′H-spiro[dihydroindole-3,4′-pyrrolo[3,4-d]imidazole]-2,6′(5′H)-dione]: the results for the IC50 (in assay [1]; against MDM2) were 1590 nM and 193 nM, respectively.

For `CCOc1ncc(-c2nc3c(n2C(C)C)[C@]2(C(=O)Nc4cc(Cl)ccc42)N(c2cc(Cl)ccc2C)C3=O)c(OC)n1` [Example R-127, (R)-6-chloro-5′-(5-chloro-2-methylphenyl)-2′-(2-ethoxy-4-methoxypyrimidin-5-yl)-3′-isopropyl-3′H-spiro[dihydroindole-3,4′-pyrrolo[3,4-d]imidazole]-2,6′(5′H)-dione], the IC50 in assay [1] is 1570 nM; at MDM2, 91 nM.

As for `COc1nc(OCCF)ncc1-c1nc2c(n1C(C)C)[C@]1(C(=O)Nc3cc(Cl)ccc31)N(c1cc(Cl)ccc1C)C2=O` [Example R-140, (R)-6-chloro-5′-(5-chloro-2-methylphenyl)-2′-(2-(2-fluoroethoxy)-4-methoxypyrimidin-5-yl)-3′-isopropyl-3′H-spiro[dihydroindole-3,4′-pyrrolo[3,4-d]imidazole]-2,6′(5′H)-dione], the IC50 in assay [1] amounted to 863 nM; on MDM2 it was 147 nM.

Turning to `COc1cc(C2CC2)ncc1-c1nc2c(n1C(C)C)[C@]1(C(=O)Nc3cc(Cl)ccc31)N(c1cc(Cl)cnc1C)C2=O` [Example R-143, (R)-6-chloro-5′-(5-chloro-2-methylpyridin-3-yl)-2′-(6-cyclopropyl-4-methoxypyridin-3-yl)-3′-isopropyl-3′H-spiro[dihydroindole-3,4′-pyrrolo[3,4-d]imidazole]-2,6′(5′H)-dione], the IC50 amounted to 6220 nM in assay [1] and 214 nM against MDM2.
